Read-outs that look alike come from different tables or passages of the source. Values belong to the compound of their own block, whether it stands above or below them.
What was measured:
[1] = tested on: CaMKIIα binding to GST-GluN2B-c; settings: 4 mM ADP or AS105
Method: (§1) In a series of exemplary methods, an in vitro kinase assay was used where purified CaMKIIα is incubated at 30° C. with GST-GluA1 alongside ATP. CaMKIIα normally phosphorylates S831 on the GluA1 subunit and this phosphorylation can be measured as a readout of CaMKIIα enzymatic activity (see e.g., FIG. 8B). […] In another exemplary method, binding of purified CaMKIIα to immobilized GST-GluN2B-c was induced by Ca^2+/CaM in the presence of a vehicle (none), 4 mM ADP or with […] AS105. […] At the same time, two exemplary methods were performed to observe ionomycin or chemical LTP (cLTP) induced co-localization of CaMKII and GluN2B either in HEK293 cells co-expressing GFP-CaMKII and mCherry-2BC or dissociated rat hippocampal cultures expressing GFP-CaMKII and mCh-PSD95 intrabody. HEK293 cells, incubating with vehicle or 10 μM AS105, were subjected to ionomycin. Hippocampal cultures, also incubating with either vehicle or 10 μM AS105, were treated with a chemical LTP (cLTP) stimulus (e.g., 100 μM glutamate, 10 μM glycine for 45 seconds). Confocal microscopy images were taken before and after each stimulus.
(§2) One possible mechanism by which AS283 could enhance GluN2B binding more than ATP is by suppressing CaMKII-mediated phosphorylation of GluN2B at S1303, as this phosphorylation within the CaMKII binding site on GluN2B reduces CaMKII binding.
Bound CaMKII was measured via immunoblot.

purified CaMKIIα [2] = molecular target: T1, purified CaMKIIα (Homo sapiens, UniProt Q9UQM7); settings: read-out: previously published Km values of CaMKII for ATP; cited from earlier work
purified CaMKIIα [3] = molecular target: T1, purified CaMKIIα; assay: In vitro kinase reactions with purified CaMKIIα (GluA1 S831, T286, GluN2B S1303 phosphorylation); assay type: biochemical; set-up: made in house; host or cells: baculovirus/Sf9 (CaMKIIα); BL21 bacteria (CaM); settings: GST-GluA1 S831 phosphorylation, 30° C., half-maximal response, four experiments; read-out: Km value of ATP (to activate CaMKII)
Method: as §1
Therefore, in another exemplary method, the ability of AS283 to selective inhibit CAMKII enzymatic activity without interfering with its binding to GluN2B was tested. In a first method, in vitro kinase reactions were performed at 30° C. in 1 mM ATP measuring purified CaMKIIα phosphorylation of GST-GluA1 S831 with varying concentrations of AS283 (0.41-10 μM).
as §2
In vitro phosphorylation assays. CaMKII-mediated phosphorylation of GluA1 S831 was measured by in vitro kinase reaction with purified GST-GluA1 c-terminal tail. Reactions contained 40 nM CaMKII (or water for negative controls), 1 μM GST-GluA1, 50 mM PIPES pH 7.1, 2 mM CaCl2), 10 mM MgCl2, 1 μM calmodulin, 1-4 mM ATP, and 1 PM of okadaic acid. Reactions were done at 30° C. for 20 s; reactions were stopped by adding SDS-loading buffer and incubation in a boiling water bath for 5 min. GST, phospho-S831, CaMKII, phospho-T286, or phospho-S1303 were detected in the samples by immunoblot analysis.
Km and Ki determination. The inhibition constant Ki was calculated using the Cheng-Prusoff equation for competitive inhibition: Ki=IC50/(1+[ATP]/Km).

[4] = tested on: CaMKII movement to excitatory synapses; assay: cLTP-induced CaMKII movement to excitatory synapses in the presence of soluble oligomeric Aβ; assay type: cell-based; settings: 0.5 μM Aβ, 45 minutes prior to cLTP

Compound: Nc1ncnc2c1ncn2[C@@H]1O[C@H](COP(=O)(O)OP(=O)(O)O)[C@@H](O)[C@H]1O [ADP]
Ca2+/CaM-induced binding of CaMKIIα to immobilized GST-GluN2B-c versus vehicle (none) [1]: induced binding

Km (purified CaMKIIα [3]): 33.3 µM
Compound: Nc1ncnc2c1ncn2[C@@H]1O[C@H](COP(=O)(O)OP(=O)(O)OP(=O)(O)O)[C@@H](O)[C@H]1O [ATP]
Km (purified CaMKIIα [2]): 8 to 127 µM

Compound: C[C@@H](c1ccc(-c2ccccc2)c(F)c1)c1cc(/N=C(\N)N2CCOCC2)on1 [rimacalib]
rescue of Aβ-blocked cLTP-induced movement of CaMKII to the synapses ([4]; inhibitor 10 μM): rescued

Compound: Aβ: Amyloid beta (1-42) peptide purchased from Anaspec, soluble oligomeric preparation
effect of Aβ on cLTP-induced movement of CaMKII to the synapses [4]: blocks cLTP induced movement of CaMKII to the synapses
